Where two headings read alike, the source gives them in different places.
How the values were obtained:
p-mTOR = experiment: Western blot of p-AKT and p-mTOR in PI3K knocked down HCC827 cells; type: cell-based, human
Excerpt: First, we identified potential targets of DHW‐221. […] For mTOR, DHW‐221 precisely overlapped with it and formed two more hydrogen bonds (Val2240 and Thr2245) than NVP‐BEZ235 (Figure 1A). […] Additionally, we knocked down PI3K in HCC827 cells (Figure 1C) and compared how DHW‐221, NVP‐BEZ235, and wortmannin (a PI3K inhibitor) treatments affected AKT and mTOR protein phosphorylation levels. […] Finally, western blot and immunofluorescence analysis confirmed the effect of DHW‐221 on the expression of PI3K/AKT/mTOR pathway‐related proteins both in vitro and in vivo (Figure 1E–G). […] The effects of DHW‐221 on notch pathway are provided in Result S1.
FIGURE 1 DHW‐221 is a PI3K/mTOR dual‐target inhibitor and inhibits the PI3K/AKT/mTOR signaling pathway. (A) Predicted binding modes for DHW‐221 (blue stick) with PI3Kα (PDB code: 4JPS) and mTOR (PDB code: 4JT6). Hydrogen bonds are shown as green dashed lines. Key residues for DHW‐221 and BEZ235 interaction are highlighted. (B) A cellular thermal shift assay (CETSA) and an isothermal dose–response fingerprinting (ITDRF)cetsa were used to evaluate the thermal stability of DHW‐221 bound to PI3Kα/β or mTOR. (C, D) The expression of PI3K, p‐AKT, and p‐mTOR in transfected NSCLC cells was assessed by western blot. […]

mTOR kinase = mTOR kinase (Homo sapiens, UniProt P42345); experiment: mTOR kinase assay in vitro; type: biochemical
HCC827 = experiment: SRB assay HCC827; type: cell-based; conditions: Homo sapiens, mean±SD
Procedure: (§1) To investigate the effect of DHW‐221 in vitro, SRB assay was performed. […] Additionally, the long‐term efficacy of DHW‐221 was evaluated and confirmed a better antiproliferation role than NVP‐BEZ235 (Figure 2C–E). Figure 2F investigates the concentration‐dependently inhibition of DHW‐221 on protein synthesis in cells. HCC827 xenograft models in both subcutaneous and orthotopic were used to further evaluate its antitumor potency in vivo. […] Moreover, DHW‐221 treatment could ameliorate the burden of orthotopic carcinoma to nude mice (Figure 2O, P).
(§2) FIGURE 2 DHW‐221 inhibits the viability of NSCLC cells both in vitro and in vivo. (A) The structure of compound DHW‐221. (B) The viability of HCC827, NCI‐H292, NCI‐H1993, and A549 cells treated with various concentrations of DHW‐221 at 24, 48, and 72 h was determined by sulforhodamine B (SRB) assay. (C–E) The growth‐inhibitory effect of DHW‐221 on HCC827 and NCI‐H1993 cells was measured using a colony formation assay (C), a lactate dehydrogenase (LDH) assay (D), and a tumor sphere formation assay (E). […] (F) OPP‐labeled protein content was detected by luciferase plate. (G) Tumor‐burdened nude mice and resected tumor samples from subcutaneous xenografts after 21 days (n = 6). (H) Subcutaneous tumor volume was measured daily with a caliper. (I) Mean tumor weight was measured to subcutaneous xenografts at the end of the experiment. (J) Subcutaneous xenografts nude mice were weighed daily on an electronic scale. (K) The index of each main organ of subcutaneous xenografts nude mice. (L) Liver and kidney function indexes subcutaneous xenografts nude mice were evaluated to predict drug toxicity. (M) Hematoxylin and eosin (H&E) staining of the liver, spleen, and kidney from subcutaneous xenografts nude mice; scale bar = 100 µm. (N) Photographs of NSCLC orthotopic tumor samples, n = 6. (O) Orthotopic xenografts nude mice were weighed daily on an electronic scale. (P) The index of lung organ was measured from orthotopic xenografts nude mice. Mean ± SD; *p < 0.05, **p < 0.01, ***p < 0.001 versus the control (model). […]

NCI-H292 = experiment: SRB assay NCI-H292; type: cell-based; conditions: Homo sapiens, mean±SD
Procedure: as §1, §2

NCI-H1993 = experiment: SRB assay NCI-H1993; type: cell-based; conditions: Homo sapiens, mean±SD
Procedure: as §1, §2

A549 = experiment: SRB assay A549; type: cell-based; conditions: Homo sapiens, mean±SD
Procedure: as §1, §2

Pharmacokinetics in mice = type: in vivo; conditions: mouse, plasma, 10 mg/kg; for MRT inf: read-out: MRTinf_obs
Procedure: ^a Values are the average of three runs. Vehicle: DMSO:ethanol:saline=3:100:897. ^b Dose:10 mg/kg. T1/2, half-life; Cmax, maximum concentration; Tmax, time of maximum concentration; AUCall, area under the plasma concentration time curve.

[1] = tested on: normal cell lines (HL7702, HUVEC, and MRC-5); experiment: SRB cytotoxicity toward normal cell lines; type: cell-based; conditions: MRC-5, 72 h
Procedure: as §1
Figure S3. The effect of DHW-221 on normal cell lines. SRB assay was used to determine the cytotoxicity of DHW-221 toward normal cell lines (HL7702, HUVEC, and MRC-5) at 72 h. Mean ± SD; **p < 0.01, ***p < 0.001 vs. the control. One-way analysis of variance followed by Tukey’s post hoc multiple-comparisons test.

HCC827 xenograft = HCC827 xenograft models (subcutaneous and orthotopic) in nude mice; type: in vivo
Procedure: as §1, §2

NSCLC cells = experiment: Cell cycle analysis by flow cytometry; type: cell-based, human; conditions: 48 h, concentration-dependently
Excerpt: The PI3K/AKT/mTOR pathway is strongly linked to the regulation of cell cycle progression and apoptosis during cell proliferation.[6], [7] […] Meanwhile, the expression of endogenous cyclins in G0/G1 phase was detected by western blot, confirming that DHW‐221 regulated the cell cycle (Figure 3B). Apoptosis is crucial for anticancer drugs to kill cancer cells.[7] […] Finally, the proapoptotic effects of DHW‐221 were confirmed by western blot analysis of apoptosis‐related protein expression both in vitro and in vivo (Figure 3G–I).
FIGURE 3 DHW‐221 induces cell cycle arrest and cell apoptosis in NSCLC both in vitro and in vivo. (A) DHW‐221 and NVP‐BEZ235 were detected by flow cytometry for 48 h. The raw histogram is shown at the top and the quantification of specific cell cycle stages at the bottom. (B) Western blot analysis of the expression levels of cell cycle‐related proteins in HCC827 and NCI‐H1993 cells after 48 h of treatment with the specified concentrations of DHW‐221 and NVP‐BEZ235. (C) Hoechst 33342 staining results. Apoptotic cells are bright blue; scale bar, 50 µm. […] Green fluorescence indicates decreased mitochondrial membrane potential, red fluorescence indicates normal mitochondrial membrane potential; scale bar, 100 µm. […] (G–I) The expression levels of apoptosis‐related proteins in NSCLC cells (G, H) and tumor tissues (I) were detected by western blot. […]

Notch2 and Notch3 = experiment: Western blot of Notch pathway proteins; type: cell-based, human; conditions: HCC827 and NCI-H1993 cells, 48 h
Procedure: The PI3K signaling pathway is interrelated with Notch. However, the regulatory relationship between Notch and PI3K/AKT/mTOR pathways is still unclear. Next, we investigated the effects of DHW-221 on Notch and its downstream critical target Hes-1.
Figure S2. DHW-221 blocks the notch pathway. HCC827 and NCI-H1993 cells were treated with DHW-221 or NVP-BEZ235 for 48 h following which western blotting was performed on the cell lysates. Mean ± SD; **p < 0.01, ***p < 0.001 vs. the control. One-way analysis of variance followed by Tukey’s post hoc multiple-comparisons test.

## Cn1c(=O)n(-c2ccc(C(C)(C)C#N)cc2)c2c3cc(-c4cnc5ccccc5c4)ccc3ncc21 [NVP‐BEZ235, reference compound]
p-mTOR
  p-mTOR expression compared with wortmannin: significantly decreased

## COc1ncc(-c2ccc3ncn(-c4ccc(OCCO)cc4)c3c2)cc1NS(=O)(=O)c1ccc(F)cc1F [DHW-221]
mTOR kinase
  IC50: 0.0039 µM
HCC827; 24h, n=3, read-out: IC50 HCC827 24h
  IC50: 8.33 ± 1.45 µM
HCC827; 48h, n=3, read-out: IC50 HCC827 48h
  IC50: 0.97 ± 0.127 µM
HCC827; 72h, n=3, read-out: IC50 HCC827 72h
  IC50: 0.032 ± 0.018 µM
NCI-H292; 24h, n=3, read-out: IC50 NCI-H292 24h
  IC50: 7.32 ± 2.42 µM
NCI-H292; 48h, n=3, read-out: IC50 NCI-H292 48h
  IC50: 0.253 ± 0.149 µM
NCI-H292; 72h, n=3, read-out: IC50 NCI-H292 72h
  IC50: 0.026 ± 0.003 µM
NCI-H1993; 24h, n=3, read-out: IC50 NCI-H1993 24h
  IC50: 3.23 ± 1.29 µM
NCI-H1993; 48h, n=3, read-out: IC50 NCI-H1993 48h
  IC50: 0.762 ± 0.083 µM
NCI-H1993; 72h, n=3, read-out: IC50 NCI-H1993 72h
  IC50: 0.117 ± 0.054 µM
A549; 24h, n=3, read-out: IC50 A549 24h
  IC50: 7.14 ± 1.24 µM
A549; 48h, n=3, read-out: IC50 A549 48h
  IC50: 0.893 ± 0.288 µM
A549; 72h, n=3, read-out: IC50 A549 72h
  IC50: 0.372 ± 0.086 µM
Pharmacokinetics in mice; iv
  AUC: 262 ± 75.7 µg·h/mL
  Cmax: 67400 ± 8540 ng/mL
  Tmax: 0.083 h
  half-life: 3.7 ± 0.2 h
  MRT inf: 4.7 ± 0.3 h
Pharmacokinetics in mice; po vs iv, read-out: F (oral bioavailability)
  bioavailability: 67.5%
Pharmacokinetics in mice; po
  AUC: 176 ± 51.1 µg·h/mL
  Cmax: 11800 ± 3400 ng/mL
  Tmax: 3 ± 1.7 h
  half-life: 7.1 ± 0.9 h
  MRT inf: 11.4 ± 0.3 h
[1]
  effect on normal cells: without affecting the normal cells
HCC827 xenograft; HCC827 subcutaneous and orthotopic xenografts, nude mice
  tumor growth: apparently inhibited tumor growth
HCC827 xenograft; subcutaneous xenograft nude mice, high dose
  alanine aminotransferase concentration: increased at high dose
HCC827 xenograft; xenograft nude mice
  body weight: without affecting body weight
NSCLC cells
  cell cycle arrest: arrested at G0/G1 phase
Notch2 and Notch3
  expression of Notch2 and Notch3: had no effect
p-mTOR
  p-mTOR expression compared with wortmannin: significantly decreased
